Results: publication PMC10257657, “A flavin-monooxygenase catalyzing oxepinone formation and the complete biosynthesis of vibralactone” (Nature Communications, 2023)

How the values were obtained:
PHHY = biological target: T1, PHHY (Cutaneotrichosporon cutaneum, UniProt P15245); assay: enzyme assay, catechol production; assay type: cell-based; settings: E. coli-expressed enzyme; purification not told in main text
T1 construct: synthesized gene expressed in E. coli; FAD-dependent

VibO [1] = biological target: T2, VibO (Boreostereum vibrans, UniProt A0AA82WP17, F265Y); assay: LC-MS peak area of product […]; assay type: biochemical; settings: 6 0.5 mM, NADPH 0.1 mM, pH 7.5, 28 °C, 2 h; hydroxylation to 7
T2 construct: full length, N-terminal His6 tag, expressed in E. coli BL21(DE3) (pET28a(+)); domains cover residues 1-653; dimer; copurified FAD

VibO [2] = biological target: T3, VibO (Boreostereum vibrans, UniProt A0AA82WP17, D99N); assay: LC-MS peak area of product […]; assay type: biochemical; settings: 6 0.5 mM, NADPH 0.1 mM, pH 7.5, 28 °C, 2 h; hydroxylation to 7
T3 construct: full length, N-terminal His6 tag, expressed in E. coli BL21(DE3) (pET28a(+)); domains cover residues 1-653; dimer; copurified FAD

VibO [3] = biological target: T4, VibO (Boreostereum vibrans, UniProt A0AA82WP17, D99A); assay: LC-MS peak area of product […]; assay type: biochemical; settings: 6 0.5 mM, NADPH 0.1 mM, pH 7.5, 28 °C, 2 h; hydroxylation to 7
T4 construct: full length, N-terminal His6 tag, expressed in E. coli BL21(DE3) (pET28a(+)); domains cover residues 1-653; dimer; copurified FAD
T4 sequence (A0AA82WP17 entry or part of it D99A): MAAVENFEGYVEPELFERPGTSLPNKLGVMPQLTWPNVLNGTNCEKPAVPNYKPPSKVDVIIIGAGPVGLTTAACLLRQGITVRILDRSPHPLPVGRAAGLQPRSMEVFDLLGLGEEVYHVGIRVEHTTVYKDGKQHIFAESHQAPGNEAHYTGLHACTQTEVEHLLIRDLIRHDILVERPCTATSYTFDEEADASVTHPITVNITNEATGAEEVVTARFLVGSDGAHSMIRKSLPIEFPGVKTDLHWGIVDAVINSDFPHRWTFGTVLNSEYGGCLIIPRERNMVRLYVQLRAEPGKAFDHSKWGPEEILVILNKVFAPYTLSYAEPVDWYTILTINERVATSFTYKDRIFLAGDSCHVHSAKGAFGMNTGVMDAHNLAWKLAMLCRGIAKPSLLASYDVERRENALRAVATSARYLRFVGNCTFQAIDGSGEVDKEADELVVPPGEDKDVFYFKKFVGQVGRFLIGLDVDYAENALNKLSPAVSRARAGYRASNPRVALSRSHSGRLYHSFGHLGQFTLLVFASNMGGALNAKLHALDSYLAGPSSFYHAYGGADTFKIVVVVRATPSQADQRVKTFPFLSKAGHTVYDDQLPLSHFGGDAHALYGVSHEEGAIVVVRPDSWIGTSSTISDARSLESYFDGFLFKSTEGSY

T2 sequence (A0AA82WP17 entry or part of it F265Y): as the sequence (A0AA82WP17 entry or part of it D99A) above, with A99D, F265Y counted along it
T1 sequence (P15245 2-665): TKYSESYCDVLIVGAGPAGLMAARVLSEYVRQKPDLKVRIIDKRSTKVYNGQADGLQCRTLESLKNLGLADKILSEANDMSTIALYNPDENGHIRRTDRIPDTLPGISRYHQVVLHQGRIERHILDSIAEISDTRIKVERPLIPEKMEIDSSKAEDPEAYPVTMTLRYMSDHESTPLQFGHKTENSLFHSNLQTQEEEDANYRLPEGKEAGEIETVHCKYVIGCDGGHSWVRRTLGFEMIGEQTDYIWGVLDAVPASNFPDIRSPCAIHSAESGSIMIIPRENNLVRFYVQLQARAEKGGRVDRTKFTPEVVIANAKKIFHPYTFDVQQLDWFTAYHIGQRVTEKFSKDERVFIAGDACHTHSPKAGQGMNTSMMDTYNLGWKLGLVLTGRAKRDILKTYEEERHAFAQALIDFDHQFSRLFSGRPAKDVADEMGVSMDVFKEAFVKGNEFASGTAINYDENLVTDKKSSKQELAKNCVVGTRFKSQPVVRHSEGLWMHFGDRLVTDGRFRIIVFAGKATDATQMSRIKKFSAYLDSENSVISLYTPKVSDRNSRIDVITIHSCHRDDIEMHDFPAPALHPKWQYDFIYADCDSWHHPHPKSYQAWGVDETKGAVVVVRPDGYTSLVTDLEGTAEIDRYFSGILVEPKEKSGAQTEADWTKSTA
T3 sequence (A0AA82WP17 entry or part of it D99N): as the sequence (A0AA82WP17 entry or part of it D99A) above, with A99N counted along it

% of wild-type activity (production of 7) (VibO [1]) [%]	% of wild-type activity (production of 7) (VibO [2]) [%]	% of wild-type activity (production of 7) (VibO [3]) [%]	SMILES	enzyme assay, catechol production (PHHY)
			Oc1ccccc1 [phenol]	significant production of catechol was observed for PHHY incubating with phenol
22	10	16	CC(C)=CCc1cc(CO)ccc1O [compound 6, 3-prenyl-4-hydroxybenzylalcohol]	
